The values that follow come from patent US12037324B2, “Biarylmethyl heterocycles” (Université de Montréal, priority 2016, dated 2024).

Format in all cases: cell-based
Assay [1] addresses T1, AGTR1 (Homo sapiens, UniProt P30556).
T1 construct: host or cells: Pathunter CHO-K1 AGTR1 β-arrestin cell line (CHO-K1)
T1 sequence (P30556 1-359): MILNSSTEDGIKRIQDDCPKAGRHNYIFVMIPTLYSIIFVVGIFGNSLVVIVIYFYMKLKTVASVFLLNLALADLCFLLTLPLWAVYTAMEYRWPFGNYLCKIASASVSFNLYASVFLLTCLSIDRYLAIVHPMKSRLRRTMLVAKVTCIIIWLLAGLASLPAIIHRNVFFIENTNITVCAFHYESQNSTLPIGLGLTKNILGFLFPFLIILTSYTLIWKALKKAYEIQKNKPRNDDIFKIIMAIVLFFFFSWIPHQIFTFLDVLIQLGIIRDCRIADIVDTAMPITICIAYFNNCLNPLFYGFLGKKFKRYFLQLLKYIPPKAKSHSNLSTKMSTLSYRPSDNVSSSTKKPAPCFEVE
Briefly: DiscoveRx IP1 accumulation assay (HTRF), agonist mode, Pathunter CHO-K1 AGTR1 β-arrestin cell line. The settings on record: for pEC50: read-out: IP-1 EC50. How it is done: In one aspect of the invention, signaling bias of compounds was assessed by comparing the relative activity of compounds to activate both the β-arrestin and Gq signaling pathways. In order to confirm signaling bias, compounds were studied in two different assay formats.
DiscoveRx β-arrestin2 Recruitment and IP1 Assays
Gq activation can be assessed by measuring the accumulation of inositol phosphates (e.g. IP3, IP1) that are liberated following activation of phospholipase C by Gq (Thomsen, Frazer et al. 2005). In the current invention we have utilized the DiscoveRx Pathunter CHO-K1 AGTR1 β-arrestin cell line to also measure IP1 accumulation in response to compounds. IP1 accumulation was measured in both agonist and antagonist modes. In agonist mode, cells are plated as above 14-16 hours before the experiment. The medium is then removed and compounds at varying concentrations added in a final volume of 20 μl. The cells are incubated at 37° C. for 90 min. IP1 accumulation detected using a commercial HTRF assay according to manufacturer's instructions (Cisbio, Bedford, MA). Specifically, 4 μl of D2-conjugate solution (diluted 1:20 in Cisbio HTRF assay buffer) is added to each well, followed by the addition of 4 μl of anti-IP1 cryptate diluted 1:20 in HTRF assay buffer and the plates incubated for 20 min at room temperature. 14 μl from each well is measured using an Envision multi-label reader and data processed using Toolset for Runmaster QCMulti. Concentration-response curves are fitted and EC50s (agonist mode) and IC50s (antagonist mode) estimated using a 4-parameter logistic equation. Compound activities are reported as a relative percentage to the maximal effect of All in the assays.

The target of assay [2] is T1, AGTR1. Briefly: DiscoveRx β-arrestin2 recruitment assay (enzyme complementation, Pathunter CHO-K1 AGTR1 β-arrestin cell line). The settings on record: DiscoveRx β-arrestin2 recruitment; for DiscoveRx β-arrestin2 Ymax (%): maximal response. As to the method:
In one aspect of the invention, signaling bias of compounds was assessed by comparing the relative activity of compounds to activate both the β-arrestin and Gq signaling pathways. In order to confirm signaling bias, compounds were studied in two different assay formats. DiscoveRx β-arrestin2 Recruitment and IP1 Assays β-arrestin2 recruitment to activated receptors can be assessed using an enzyme complementation method (Zhao, Jones et al. 2008). […] Cells (5000/well) were plated into 1536 well plates (Cellocoat plates, Greiner Bio One, Monroe, NC) 14-16 hours before each experiment in 20 μl DMEM/F12 medium (Thermo-Fisher Scientific, Carlsbad, CA) containing heat-inactivated 1% fetal bovine serum. Subsequently, the compounds of interest were added at varying concentrations to the wells in a volume of 200 nl and the cells incubated for 90 min at 37° C. The detection reagent (10 μl) was added to each well and the plates incubated at room temperature for 1 hour before measurement of chemiluminescence using an EnVision Multilabel Reader (Perkin-Elmer, Waltham, MA). The data are processed using Toolset for Runmaster QCMulti. Concentration-response curves are fitted and EC50s (agonist mode) and IC50s (antagonist mode) estimated using a 4-parameter logistic equation. Compound activities are reported as a relative percentage to the maximal effect of All in the assays.
(In general: Activated receptors often draw arrestin, which recruitment assays turn into a signal.)

In the next assay the target is T2, hAT1R (Homo sapiens, UniProt P30556).
T2 sequence (P30556 1-359): T1 sequence (P30556 1-359)
Briefly: BRET β-arrestin2 biosensor assay, higher receptor expression (hAT1R 5 ng/well), HEK293 cells. The settings on record: for pEC50: High AT1R Expression. For orientation: Bioluminescence resonance energy transfer reports proximity on the nanometre scale.

Molecules are shown by their SMILES. pEC50: −log10 of the molar value. A value given as a limit tells only on which side of the number the result lay.

By pEC50 is commonly meant the negative decadic logarithm of the EC50, by convention in mol/L. As to `CCc1nc2c(C)cc(C)nc2n1Cc1ccc(-c2cc(-c3ccsc3)ccc2-c2nn[nH]n2)cc1` [Example 55], at AGTR1 [1], the “IP-1 Ymax (%)” value stood at 6.8% and the pEC50 was 7.57. Besides, on AGTR1 [2], the pEC50 is 8.03 and the “DiscoveRx β-arrestin2 Ymax (%)” value was determined as 44.9%.
For `CCCCC1=NC2(CCCC2)C(=O)N1Cc1ccc(-c2cc(N3CC4(CC4)c4ccccc43)ccc2-c2nn[nH]n2)cc1` [Example 108], in that order: 12.8%, 6.66, 7.37 and 38.8%.
`CCc1nc2c(C)cc(C)nc2n1Cc1ccc(-c2cc(N3CC[C@H](C)C3)ccc2-c2nn[nH]n2)cc1` [Example 89]: the pEC50 at AGTR1 [1] is less than 4.00. In addition, at AGTR1 [2], the pEC50 is 7.31 and the “DiscoveRx β-arrestin2 Ymax (%)” value was 22.5%.
For `CCCCC1=NC2(CCCC2)C(=O)N1Cc1ccc(-c2cc(N3CCC(C)C3)ccc2-c2nn[nH]n2)cc1` (centres unmarked) [Example 103], in that order: less than 4.00, 6.95 and 8.8%.
For `CCc1nc2c(C)cc(C)nc2n1Cc1ccc(-c2cc(N3CCC[C@H](C)C3)ccc2-c2nn[nH]n2)cc1` [Example 88], in that order: less than 4.00, 8.09 and 22.1%.
For `CCCCC1=NC2(CCCC2)C(=O)N1Cc1ccc(-c2cc(N3CCC(C)(C)CC3)ccc2-c2nn[nH]n2)cc1` [Example 101], in that order: less than 4.00, 7.52 and 21.4%.
On to `CCCCC1=NC2(CCCC2)C(=O)N1Cc1ccc(-c2cc(-c3cncc(OC)c3)ccc2-c2nn[nH]n2)cc1` [Example 132], for which, on hAT1R, the “BRET β-Arrestin2 High AT1R Expression Ymax (%)” value is 22.0% and the pEC50 is 6.30. On AGTR1 [2], the pEC50 was 7.06 and the “DiscoveRx β-arrestin2 Ymax (%)” value was determined as 14.1%.
For the compound `CCc1nc2c(C)cc(C)nc2n1Cc1ccc(-c2cc(-c3ccc4c(ccn4C)c3)ccc2-c2nn[nH]n2)cc1` [Example 17], on AGTR1 [1], the “IP-1 Ymax (%)” value is on record as 3.3% and the pEC50 was 8.06. Also, at AGTR1 [2], the pEC50 is 7.80 and the “DiscoveRx β-arrestin2 Ymax (%)” value turned out to be 11.9%.
Turning to `CCCCc1nc(Cl)c(C(=O)O)n1Cc1ccc(-c2cc(N3CCc4ccccc43)ccc2-c2noc(=O)[nH]2)cc1` [Example 406, 2-butyl-4-chloro-1-((5′-(indolin-1-yl)-2′-(5-oxo-4,5-dihydro-1,2,4-oxadiazol-3-yl)-[1,1′-biphenyl]-4-yl)methyl)-1H-imidazole-5-carboxylic acid], at hAT1R, the “BRET β-Arrestin2 High AT1R Expression Ymax (%)” value was determined as 97.5% and the pEC50 was 7.97. For the same compound, at AGTR1 [2], the negative-log EC50 (pEC50) was 8.05 and the “DiscoveRx β-arrestin2 Ymax (%)” value amounted to 33.9%.
As to `CCc1nc2c(C)cc(C)nc2n1Cc1ccc(-c2cc(-c3ccccc3)ccc2C(=O)O)nc1` [Example 201, 3-(5-((2-ethyl-5,7-dimethyl-3H-imidazo[4,5-b]pyridin-3-yl)methyl)pyridin-2-yl)biphenyl-4-carboxylic acid], on AGTR1 [1], the “IP-1 Ymax (%)” value is reported as 5.6% and the pEC50 was 6.34. On AGTR1 [2], the pEC50 is 6.46 and the “DiscoveRx β-arrestin2 Ymax (%)” value is reported as 7.0%.
As to `CCc1nc2c(C)cc(C)nc2n1Cc1ccc(-c2cc(C3CCCO3)ccc2-c2nn[nH]n2)cc1` (single isomer, unassigned) [Example 73, 2-ethyl-5,7-dimethyl-3-((5′-(tetrahydrofuran-2-yl)-2′-(2H-tetrazol-5-yl)-[1,1′-biphenyl]-4-yl)methyl)-3H-imidazo[4,5-b]pyridine], on AGTR1 [1], the “IP-1 Ymax (%)” value is 11.6% and the negative-log EC50 (pEC50) was 5.23. On AGTR1 [2], the pEC50 is 6.97 and the “DiscoveRx β-arrestin2 Ymax (%)” value was 26.4%.
For `CCc1nc2c(C)cc(C)nc2n1Cc1ccc(-c2cc(N3CCCC3=O)ccc2-c2nn[nH]n2)cc1` [Example 28, 1-(4′-((2-ethyl-5,7-dimethyl-3H-imidazo[4,5-b]pyridin-3-yl)methyl)-6-(2H-tetrazol-5-yl)-[1,1′-biphenyl]-3-yl)pyrrolidin-2-one], in that order: 2.3%, 5.42, 6.49 and 11.9%.
Regarding `CCc1nc2c(C)cc(C)nc2n1Cc1ccc(-c2cc(N3CCC[C@@H](C)C3)ccc2-c2nn[nH]n2)cc1` [Example 86], the pEC50 was less than 4.00 at AGTR1 [1] and 6.80 at AGTR1 [2]. Besides, the “DiscoveRx β-arrestin2 Ymax (%)” value on AGTR1 [2] worked out at 38.0%.
As to `CCCC1=NC2(CCOC2)C(=O)N1Cc1ccc(-c2cc(-c3ccccc3)ccc2-c2nn[nH]n2)cc1` (single isomer, unassigned) [Example 158, 3-((6′-(2H-tetrazol-5-yl)-[1,1′:3′,1″-terphenyl]-4-yl)methyl)-2-propyl-7-oxa-1,3-diazaspiro[4.4]non-1-en-4-one], on AGTR1 [1], the “IP-1 Ymax (%)” value stood at 8.6% and the pEC50 is 6.67. Besides, on AGTR1 [2], the pEC50 was 6.72 and the “DiscoveRx β-arrestin2 Ymax (%)” value was found to be 41.6%.
Taken in the same sequence, the figures for `CCc1nc2c(C)cc(C)nc2n1Cc1ccc(-c2cc(-c3ccc(N(C)C)cc3)ccc2-c2nn[nH]n2)cc1` [Example 15] were 2.4%, 7.66, 7.65 and 14.9%.
For `CCc1nc2c(C)cc(C)nc2n1Cc1ccc(-c2cc(C3CCCCN3)ccc2-c2nn[nH]n2)cc1` (single isomer, unassigned) [Example 76, 2-ethyl-5,7-dimethyl-3-((5′-(piperidin-2-yl)-2′-(2H-tetrazol-5-yl)-[1,1′-biphenyl]-4-yl)methyl)-3H-imidazo[4,5-b]pyridine], the pEC50 at AGTR1 [1] is less than 4.00; at AGTR1 [2] it was 6.08. Further, the “DiscoveRx β-arrestin2 Ymax (%)” value on AGTR1 [2] is 13.2%.
Consider `CCCCC1=NC2(CCCC2)C(=O)N1Cc1ccc(-c2cc(-c3ccccn3)ccc2-c2nn[nH]n2)cc1` [Example 140], for which, at AGTR1 [1], the “IP-1 Ymax (%)” value is recorded as 4.5% and the pEC50 is 7.58. At AGTR1 [2], the pEC50 was 8.01 and the “DiscoveRx β-arrestin2 Ymax (%)” value worked out at 22.1%.
Take `CCc1nc2c(C)cc(C)nc2n1Cc1ccc(-c2cc(N3CCCCCC3)ccc2-c2nn[nH]n2)cc1` [Example 95, 3-((5′-(azepan-1-yl)-2′-(2H-tetrazol-5-yl)-[1,1′-biphenyl]-4-yl)methyl)-2-ethyl-5,7-dimethyl-3H-imidazo[4,5-b]pyridine]: at AGTR1 [1], the “IP-1 Ymax (%)” value stood at 6.3% and the pEC50 is 6.60. Further, on AGTR1 [2], the pEC50 is 6.86 and the “DiscoveRx β-arrestin2 Ymax (%)” value was 21.0%.
For `CCc1nc2c(C)cc(C)nc2n1Cc1ccc(-c2cc(Nc3ccc(F)cc3)ccc2-c2nn[nH]n2)cc1` [Example 26, 4′-((2-ethyl-5,7-dimethyl-3H-imidazo[4,5-b]pyridin-3-yl)methyl)-N-(4-fluorophenyl)-6-(2H-tetrazol-5-yl)-[1,1′-biphenyl]-3-amine], in that order: 7.5%, 7.62, 7.97 and 25.0%.
Taken in the same sequence, the figures for `CCc1nc2c(C)cc(C)nc2n1Cc1ccc(-c2cc(-c3ccc(C)cc3)ccc2-c2nn[nH]n2)cc1` [Example 18] were 15.4%, 6.30, 6.85 and 54.2%.
